Test system: IL 1-induced release of neutral protease from rabbit articular chondrocytes
Experiment: Inhibition of the IL 1-induced release of neutral protease from rabbit articular chondrocytes (azocoll neutral protease assay)
Format: cell-based
Conditions: Oryctolagus cuniculus, Chondrocyte, purified human IL 1, 24 h after IL 1 stimulation, read-out: % Inhibition (S.D)
Description: The ability of the compounds of the inventions to inhibit interleukin 1 is measured by the ability of the test compounds to inhibit the IL 1-induced release of neutral protease from rabbit articular chondrocytes.
This assay is carried out as follows:
Isolation of rabbit chondrocytes:
Male New Zealand White rabbits are anesthetized with 50 mg/kg of ketamine (i.m.) and killed by an intracardiac injection of 3 mls. of Nembutal. The knee joints of both legs are resected and the articular surfaces are exposed. Cartilage slices are obtained using a scalpel and are placed in a tissue culture dish (100 mm diameter) containing 10 mls of Hank's balanced salt solution (HBSS). The chondrocytes within the cartilage slices are then liberated by a series of enzyme digestions. The slices are incubated for 10 min. at 37° C. in 0.05% hyaluronidase (Sigma H-3884), rinsed with HBSS and incubated with 0.2% trypsin (Sigma T-2395) for 10 min. at 37° C. The slices are rinsed again and incubated for 10 mins. at 37° C. with 1.2% collagenase (Sigma C-5138). The slices are then rinsed again with HBSS and resuspended in 10 ml of Ham's F-12 medium containing 10% fetal bovine calf cerum (FCS) and 0.2% collagenase and incubated overnight at 37° C. in a 5% CO2 incubator. The next day, the medium containing the digested cartilage fragments and liberated chondrocytes is transferred to a 15 ml centrifuge tube and the cells are collected by centrifugation and washed twice and resuspended in Ham's F-12 medium. The cells are then plated into 24-well tissue culture plates (2×10^5 cells/well) and incubated at 37° C. until confluent (usually 4-6 days).
Stimulation of chondrocytes and drug treatment:
The confluent chondrocytes are rinsed twice with serum-free Ham's F-12 medium and 1 ml is added to each well. Fifty μl of purified human IL 1 (100 Units/ml; Genzyme Corporation, Boston, MA) is then added to stimulate these cells to secrete neutral protease. To measure drug effects, the cells are treated with test compound 10 min. prior to addition of IL 1. The standard screening dose is 10 μM. Twenty-four hours after IL 1 stimulation, supernatant fluids are collected and assayed for neutral protease activity.
The neutral protease activity of chondrocyte supernatant fluids is determined by their ability to degrade an insoluble protease substrate, azocoll (Sigma). Supernatants are treated for 10 min. at room temperature with 350 μM p-aminophenylmurcuric acetate to activate the latent enzyme. Three hundred μl of supernatant is then mixed with 500 μl of a 20 mg/ml suspension of azocoll and incubated at 37° C. for 18-24 hrs. with gentle rocking. The mixtures are centrifuged and the amount of substrate hydrolyzed is determined by measuring the absorbance of the supernatant at 520 nm.
Drug effects are calculated as the % change in enzyme activity (absorbance)by supernatants from drug-treated chondrocytes relative to enzyme activity of supernatants from vehicle-treated chondrocytes as follows: [formula]

| SMILES | inhibition at 10 µM [%] | inhibition at 0.1 µM [%] | inhibition at 1 µM [%] |
| --- | --- | --- | --- |
| N#Cc1ccc(N2CCc3nc4cc(Cl)ccc4c(Cl)c3C2)cc1 [Example 1, 4-(7,10-Dichloro-3,4-dihydrobenzo[b][1,6]naphthyridin-2(1H)-yl)benzonitrile] | 22 ± 1 |  |  |
| CCOC(=O)c1ccc(N2CCc3nc4cc(Cl)ccc4c(Cl)c3C2)cc1 [Example 2, 4-(7,10-Dichloro-3,4-dihydrobenzo[b][1,6]naphthyridin-2(1H)-yl)benzoic acid ethyl ester] | 35 ± 16 |  |  |
| CS(=O)(=O)c1ccc(N2CCc3nc4cc(Cl)ccc4c(Cl)c3C2)cc1 [Example 3, 7,10-Dichloro-1,2,3,4-tetrahydro-2-(4-methylsulfonyl)phenylbenzo[b][1,6]naphthyridine] | 62 ± 2 | 69 ± 1 | 66 ± 1 |
| Fc1ccc(N2CCc3nc4cc(Cl)ccc4c(Cl)c3C2)cc1 [Example 4, 7,10-Dichloro-2-(4-fluorophenyl)-1,2,3,4-tetrahydrobenz[b][1,6]naphthyridine] | 76 ± 29 |  | 9 ± 20 |
| N#Cc1ccc(N2CCc3nc4ccccc4c(Cl)c3C2)cc1 [Example 5, 4-(10-Chloro-3,4-dihydrobenzo[b][1,6]naphthyridine-2(1H)-yl)benzonitrile, hemihydrate] | 66 ± 29 |  |  |
| CCOC(=O)c1ccc(N2CCc3nc4ccccc4c(Cl)c3C2)cc1 [Example 8, 4-(10-Chloro-3,4-dihydrobenzo[b][1,6]naphthyridin-2(1H)-yl)benzoic acid ethyl ester] | 91 | 40 | 43 |
| N#Cc1ccc(N2CCc3nc4ccc(Cl)cc4c(Cl)c3C2)cc1 [Example 9, 4-(8,10-Dichloro-3,4-dihydrobenzo[b][1,6]naphthyridin-2(1H)-yl)benzonitrile, 1/4 hydrate] | 86 |  | 43 |
| Cc1ccc2c(Cl)c3c(nc2c1)CCN(c1ccc(C#N)cc1)C3 [Example 10, 4-(10-Chloro-3,4-dihydro-7-methylbenzo[b][1,6]naphthyridin-2(1H)-yl)benzonitrile, 1/5 ethyl acetate] | 33 |  |  |
| N#Cc1ccc(N2CCc3nc4cc(F)ccc4c(Cl)c3C2)cc1 [Example 11, 4-(10-Chloro-7-fluoro-3,4-dihydrobenzo[b][1,6]naphthyridin-2(1H)-yl)benzonitrile, 1/4 hydrate] | < 20 |  |  |
| N#Cc1ccc(N2CCc3nc4cc(Cl)ccc4c(NNc4ccccc4)c3C2)cc1 [Example 12, 4-[7-Chloro-3,4-dihydro-10-(2-phenylhydrazino)benzo[b][1,6]naphthyridin-2(1H)-yl]benzonitrile, hydrate] | 69 |  |  |
